Each compound was assayed against T1, Full-length, GST-tagged, human CaMKIIδ (Homo sapiens, UniProt Q13557) (assay: CaMKIIδ binding assay (TR-FRET with BODIPY-labeled probe ligand)). Settings: CaMKIIδ binding assay, results of Table 2.
T1 construct: Full-Length, Glutathione-S-Transferase(GST)-Tagged, Human CaMKIIδ was purchased from Carna Biosciences; purchased Carna Biosciences 02-111
T1 sequence (Q13557 1-478 isoform Q13557-12): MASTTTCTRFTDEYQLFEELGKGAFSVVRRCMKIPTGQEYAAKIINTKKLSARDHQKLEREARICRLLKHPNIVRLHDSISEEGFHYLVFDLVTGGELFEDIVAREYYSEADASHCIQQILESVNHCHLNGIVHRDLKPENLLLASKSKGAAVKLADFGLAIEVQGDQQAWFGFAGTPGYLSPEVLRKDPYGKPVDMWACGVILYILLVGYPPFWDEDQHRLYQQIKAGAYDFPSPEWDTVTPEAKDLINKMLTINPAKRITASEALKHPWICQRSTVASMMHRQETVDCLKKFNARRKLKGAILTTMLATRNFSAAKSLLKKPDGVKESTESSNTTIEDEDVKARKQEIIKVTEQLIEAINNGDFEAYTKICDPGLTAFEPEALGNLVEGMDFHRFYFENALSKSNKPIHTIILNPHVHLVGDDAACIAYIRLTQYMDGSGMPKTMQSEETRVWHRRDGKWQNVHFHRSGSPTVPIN
In short: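 Compounds were tested as 4-fold, eight-point series for 1 hr at room temperature, and IC50 was obtained by logistic fitting against a 3 μM parent-compound control. Signal came from displacement of a 300 nM BODIPY ligand from 0.5 nM GST-CaMKIIδ, detected via Tb-anti-GST in calmodulin/Ca2+ (pH 7.6).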
For `COc1cc2c(cc1Nc1ncc(-c3ccc(Cl)c(O[C@@H](C)Cn4cnnn4)c3)cn1)CCN(CC(F)F)C2` [Example 476, (S)-N-(5-(3-((1-(1H-tetrazol-1-yl)propan-2-yl)oxy)-4-chlorophenyl)pyrimidin-2-yl)-2-(2,2-difluoroethyl)-7-methoxy-1,2,3,4-tetrahydroisoquinolin-6-amine], the IC50 was 10 to 100 nM.
`COc1cc2c(cc1Nc1ncc(-c3ccc(Cl)c(O[C@@H](C)Cn4cnnn4)c3)cn1)CN(C(=O)CO)CC2` [Example 522, (S)-1-(7-((5-(3-((1-(1H-tetrazol-1-yl)propan-2-yl)oxy)-4-chlorophenyl)pyrimidin-2-yl)amino)-6-methoxy-3,4-dihydroisoquinolin-2(1H)-yl)-2-hydroxyethan-1-one] showed an IC50 of 10 to 100 nM.
`C[C@@H](Cn1cnnn1)Oc1cc(-c2cnc(Nc3cn(C4CCN(C5CCS(=O)(=O)CC5)CC4)nc3C(F)(F)F)nc2)ccc1Cl` [Example 565, (S)-4-(4-(4-((5-(3-((1-(1H-tetrazol-1-yl)propan-2-yl)oxy)-4-chlorophenyl)pyrimidin-2-yl)amino)-3-(trifluoromethyl)-1H-pyrazol-1-yl)piperidin-1-yl)tetrahydro-2H-thiopyran 1,1-dioxide] showed an IC50 of under 10 nM.
Compound `COc1cc(C2CCN(C3COC3)CC2)c(C)cc1Nc1ncc(-c2ccc(C#N)c(O[C@@H](C)Cn3cnnn3)c2)cn1` [Example 528, (S)-2-((1-(1H-tetrazol-1-yl)propan-2-yl)oxy)-4-(2-((2-methoxy-5-methyl-4-(1-(oxetan-3-yl)piperidin-4-yl)phenyl)amino)pyrimidin-5-yl)benzonitrile] has an IC50 of under 10 nM.
In the case of `COc1ccc(C(=O)N2CCCN(C)CC2)cc1Nc1ncc(-c2ccc(Cl)c(O[C@@H](C)Cn3cnnn3)c2)cn1` [Example 544, (S)-(3-((5-(3-((1-(1H-tetrazol-1-yl)propan-2-yl)oxy)-4-chlorophenyl)pyrimidin-2-yl)amino)-4-methoxyphenyl) (4-methyl-1,4-diazepan-1-yl)methanone], the IC50 is reported as under 10 nM.
Compound `C[C@@H](Cn1cnnn1)Oc1cc(-c2cnc(Nc3cn(C4CCN(Cc5ccccn5)CC4)nc3C(F)(F)F)nc2)ccc1Cl` [Example 564, (S)-5-(3-((1-(1H-tetrazol-1-yl)propan-2-yl)oxy)-4-chlorophenyl)-N-(1-(1-(pyridin-2-ylmethyl)piperidin-4-yl)-3-(trifluoromethyl)-1H-pyrazol-4-yl)pyrimidin-2-amine] has an IC50 of under 10 nM.
`COc1cc2c(cc1Nc1ncc(-c3ccc(C#N)c(O[C@@H](C)Cn4cnnn4)c3)cn1)C(=O)N(C1CCC1)C2` [Example 442, (S)-2-((1-(1H-tetrazol-1-yl)propan-2-yl)oxy)-4-(2-((2-cyclobutyl-6-methoxy-3-oxoisoindolin-5-yl)amino)pyrimidin-5-yl)benzonitrile] gave an IC50 of 10 to 100 nM.
Compound `C[C@@H](Cn1cnnn1)Oc1cc(-c2cnc(Nc3cn(C4CCN(Cc5ccncc5)CC4)nc3C(F)(F)F)nc2)ccc1Cl` [Example 550, (S)-5-(3-((1-(1H-tetrazol-1-yl)propan-2-yl)oxy)-4-chlorophenyl)-N-(1-(1-(pyridin-4-ylmethyl)piperidin-4-yl)-3-(trifluoromethyl)-1H-pyrazol-4-yl)pyrimidin-2-amine] has an IC50 of 10 to 100 nM.
`COc1cc2c(cc1Nc1ncc(-c3ccc(Cl)c(O[C@@H](C)Cn4cnnn4)c3)cn1)CN(C(=O)COC(C)=O)CC2` [Example 519, (S)-2-(7-((5-(3-((1-(1H-tetrazol-1-yl)propan-2-yl)oxy)-4-chlorophenyl)pyrimidin-2-yl)amino)-6-methoxy-3,4-dihydroisoquinolin-2(1H)-yl)-2-oxoethyl acetate] gave an IC50 of 10 to 100 nM.

Same assay, conditions: CaMKIIδ binding assay; activity class per Table 2
In the case of `C[C@@H](Cn1cnnn1)Oc1cc(-c2cnc(Nc3cn(Cc4cccc(=O)[nH]4)nc3OCC(F)(F)F)nc2)ccc1Cl` [Example 929, (S)-6-((4-((5-(3-((1-(1H-tetrazol-1-yl)propan-2-yl)oxy)-4-chlorophenyl)pyrimidin-2-yl)amino)-3-(2,2,2-trifluoroethoxy)-1H-pyrazol-1-yl)methyl)pyridin-2(1H)-one], the IC50 is reported as under 10 nM.
With `C[C@@H](Cn1cnnn1)Oc1cc(-c2cnc(Nc3cn(C4CC5(C4)CN(c4ccccn4)C5)nc3OCC(F)(F)F)nc2)ccc1Cl` [Example 1001, (S)-5-(3-((1-(1H-tetrazol-1-yl)propan-2-yl)oxy)-4-chlorophenyl)-N-(1-(2-(pyridin-2-yl)-2-azaspiro[3.3]heptan-6-yl)-3-(2,2,2-trifluoroethoxy)-1H-pyrazol-4-yl)pyrimidin-2-amine] the IC50 was under 10 nM.
Work on `C[C@@H](Cn1cnnn1)Oc1cc(-c2cnc(Nc3cn(Cc4ccc(=O)[nH]c4)nc3OCC(F)(F)F)nc2)ccc1Cl` [Example 927, (S)-5-((4-((5-(3-((1-(1H-tetrazol-1-yl)propan-2-yl)oxy)-4-chlorophenyl)pyrimidin-2-yl)amino)-3-(2,2,2-trifluoroethoxy)-1H-pyrazol-1-yl)methyl)pyridin-2(1H)-one] yielded an IC50 of under 10 nM.
`CCC(=O)c1nn(C2CC3(C2)CN(C2CCOCC2)C3)cc1Nc1ncc(-c2ccc(Cl)c(O[C@@H](C)Cn3cnnn3)c2)cn1` [Example 958, (S)-1-(4-((5-(3-((1-(1H-tetrazol-1-yl)propan-2-yl)oxy)-4-chlorophenyl)pyrimidin-2-yl)amino)-1-(2-(tetrahydro-2H-pyran-4-yl)-2-azaspiro[3.3]heptan-6-yl)-1H-pyrazol-3-yl)propan-1-one] was tested, and the IC50 was under 10 nM.

Same assay, conditions: Table 2; CaMKIIδ binding assay, activity given as class A/B/C
Work on `C[C@@H](Cn1cnnn1)Oc1cc(-c2cnc(Nc3cn([C@H]4C[C@@H](N5CCOCC5)C4)nc3OCC(F)F)nc2)ccc1Cl` [Example 849, (S)-5-(3-((1-(1H-tetrazol-1-yl)propan-2-yl)oxy)-4-chlorophenyl)-N-(3-(2,2-difluoroethoxy)-1-(cis-3-morpholinocyclobutyl)-1H-pyrazol-4-yl)pyrimidin-2-amine] yielded an IC50 of under 10 nM.
For `C[C@@H](Cn1cnnn1)Oc1cc(-c2cnc(Nc3nc4ccccc4n3C)nc2)ccc1Cl` [Example 745, (S)-N-(5-(3-((1-(1H-tetrazol-1-yl)propan-2-yl)oxy)-4-chlorophenyl)pyrimidin-2-yl)-1-methyl-1H-benzo[d]imidazol-2-amine], the IC50 was at least 100 nM.
`C[C@@H](Cn1cnnn1)Oc1cc(-c2cnc(Nc3cn(CC(F)F)nc3OCC(F)(F)F)nc2)ccc1C#N` [Example 767, (S)-2-((1-(1H-tetrazol-1-yl)propan-2-yl)oxy)-4-(2-((1-(2,2-difluoroethyl)-3-(2,2,2-trifluoroethoxy)-1H-pyrazol-4-yl)amino)pyrimidin-5-yl)benzonitrile] gave an IC50 of under 10 nM.
`C[C@@H](Cn1cnnn1)Oc1cc(-c2cnc(Nc3cn(C4CCNCC4)nc3OCC(F)F)nc2)ccc1Cl` [Example 791, (S)-5-(3-((1-(1H-tetrazol-1-yl)propan-2-yl)oxy)-4-chlorophenyl)-N-(3-(2,2-difluoroethoxy)-1-(piperidin-4-yl)-1H-pyrazol-4-yl)pyrimidin-2-amine] gave an IC50 of under 10 nM.
Work on `Cc1ccc(-c2cnc(Nc3cn([C@H]4CC[C@H](N5CCOCC5)CC4)nc3OCC(F)(F)F)nc2)cc1O[C@@H](C)Cn1cnnn1` [Example 811, 5-(3-(((S)-1-(1H-tetrazol-1-yl)propan-2-yl)oxy)-4-methylphenyl)-N-(1-(trans-4-morpholinocyclohexyl)-3-(2,2,2-trifluoroethoxy)-1H-pyrazol-4-yl)pyrimidin-2-amine] yielded an IC50 of under 10 nM.
`Cc1noc(C)c1Cn1cc(Nc2ncc(-c3ccc(Cl)c(O[C@@H](C)Cn4cnnn4)c3)cn2)c(C(F)(F)F)n1` [Example 734, (S)-5-(3-((1-(1H-tetrazol-1-yl)propan-2-yl)oxy)-4-chlorophenyl)-N-(1-((3,5-dimethylisoxazol-4-yl)methyl)-3-(trifluoromethyl)-1H-pyrazol-4-yl)pyrimidin-2-amine] was tested, and the IC50 was 10 to 100 nM.

Same assay, conditions: Table 2; activity class for CaMKIIδ
`COc1cc(N2CCNCC2)cnc1Nc1ncc(-c2ccc(Cl)c(O[C@@H](C)Cn3cnnn3)c2)cn1` [Example 621, (S)-5-(3-((1-(1H-tetrazol-1-yl)propan-2-yl)oxy)-4-chlorophenyl)-N-(3-methoxy-5-(piperazin-1-yl)pyridin-2-yl)pyrimidin-2-amine] was tested, and the IC50 was 10 to 100 nM.
In the case of `C[C@@H](Cn1cnnn1)Oc1cc(-c2cnc(Nc3cn(C4CCN(C5CCOCC5)CC4)nc3C(F)(F)F)nc2)ccc1Cl` [Example 706, (S)-5-(3-((1-(1H-tetrazol-1-yl)propan-2-yl)oxy)-4-chlorophenyl)-N-(1-(1-(tetrahydro-2H-pyran-4-yl)piperidin-4-yl)-3-(trifluoromethyl)-1H-pyrazol-4-yl)pyrimidin-2-amine], the IC50 is reported as under 10 nM.
In the case of `COc1cc(N2CCNCC2)ncc1Nc1ncc(-c2ccc(Cl)c(O[C@@H](C)Cn3cnnn3)c2)cn1` [Example 622, (S)-5-(3-((1-(1H-tetrazol-1-yl)propan-2-yl)oxy)-4-chlorophenyl)-N-(4-methoxy-6-(piperazin-1-yl)pyridin-3-yl)pyrimidin-2-amine], the IC50 is reported as under 10 nM.
For `COc1ccc(N2CCN(CC(N)=O)CC2)cc1Nc1ncc(-c2ccc(Cl)c(O[C@@H](C)Cn3cnnn3)c2)cn1` [Example 686, (S)-2-(4-(3-((5-(3-((1-(1H-tetrazol-1-yl)propan-2-yl)oxy)-4-chlorophenyl)pyrimidin-2-yl)amino)-4-methoxyphenyl)piperazin-1-yl)acetamide], the IC50 was under 10 nM.
In the case of `COc1nc(N2CCNCC2)ccc1Nc1ncc(-c2ccc(Cl)c(O[C@@H](C)Cn3cnnn3)c2)cn1` [Example 614, (S)-5-(3-((1-(1H-tetrazol-1-yl)propan-2-yl)oxy)-4-chlorophenyl)-N-(2-methoxy-6-(piperazin-1-yl)pyridin-3-yl)pyrimidin-2-amine], the IC50 is reported as under 10 nM.
Work on `COc1cc2c(cc1Nc1ncc(-c3ccc(Cl)c(O[C@@H](C)Cn4cnnn4)c3)cn1)NCCC2` [Example 591, (S)-N-(5-(3-((1-(1H-tetrazol-1-yl)propan-2-yl)oxy)-4-chlorophenyl)pyrimidin-2-yl)-6-methoxy-1,2,3,4-tetrahydroquinolin-7-amine] yielded an IC50 of under 10 nM.

From patent publication US10543212B2, “Substituted amines for treating cardiac diseases” (Cardurion Pharmaceuticals, LLC, priority 2017, dated 2020)
